The target in one data set is TICA0049 Fab. The data set can be described thus: HTRF competition binding selectivity assay, TICA0049 His-Fab. More on the design: species or system human. As for the experimental part: (§1) Total Binding control wells were set up which contained all of the assay components above except that 5 ul assay buffer was added in place of the test selectivity compound addition. Negative Binding control wells were set up which contained all of the assay components included in the Total Binding control wells except that 5ul assay buffer was added in place of the His-Fab addition. Test compound serial titrations were either ½ or ⅓ depending on the particular experiment and top final assay compound concentrations were optimized on a compound specific basis. The concentration of biotinylated ticagrelor and His-Fab was optimized on a Fab specific basis in separate experiments. For the four Fabs investigated at the end of the lead isolation phase (TICA0010, TICA0049, TICA0053 and TICA0072) the final assay reagent concentrations used are set out in Table 1 below:
(§2) For the two Fabs investigated at the end of the lead optimization phase (TICA0162 and TICA0212) the final assay reagent concentrations used were 5nM biotinylated ticagrelor and 1 nM His Fab in both cases. […] In order to enable subsequent normalization of data to correct for any such vehicle related effects parallel titrations of DMSO alone were included in most experiments in which the final assay DMSO concentrations mirrored those of the test compound serial dilutions. At the end of the set up procedure that assay was incubated for 3hrs at RT before being read on an Envision plate reader using a standard read protocol.
(§3) The negative ratio value used in the calculation of % Delta F was derived from the Negative Binding control wells. % Delta F values were then used to calculate % Specific Binding values according to the equation below: Specific Binding (%)={(Sample Delta F−Negative Binding Delta F)/(Total Binding Delta F−Negative Binding Delta F)}×100
(§4) For standard calculations of % Specific Binding Total Binding Delta F was taken from Total Binding control wells which contained all of the aforementioned components of the assay but without inclusion of any competing test compound.
(§5) In those experiments where DMSO normalization was applied DMSO normalised % Specific Binding was calculated essentially according to the equation above except that in this case Total Binding Delta F was taken from wells containing all of the components in the Total Binding control wells as well as DMSO at a concentration equivalent to that in the relevant sample well.
(§6) In a second series of experiments further selectivity data was generated for TICA0049 and TICA0072 Fabs in which a subset of four of the twelve compounds listed in FIG. 4 were retested along with ticagrelor, TAM and TIM and several adenosine related compounds. Here, in a refinement to the earlier investigations in Table 2, experiments were designed in order to enable normalisation of percent specific binding values to correct for any non-specific vehicle related effects due to DMSO. Example plotted data from this second series of experiments is shown in FIG. 5A-F along with tabulated IC50 values in Table 3.
Background: In TR-FRET formats the signal depends on donor and acceptor labels being close together.

The target in a further data set is TICA0072 Fab. The data set can be described thus: HTRF competition binding selectivity assay, TICA0072 His-Fab. More on the design: species or system human. The procedure: as §1, §2, §3, §4, §5, §6
Another data set concerns the target TICA0053 Fab. The data set can be described thus: HTRF competition binding selectivity assay, TICA0053 His-Fab. More on the design: species or system human. The following applies: first series (Table 2), not DMSO normalised; read-out: IC50 (uM) for inhibition of biotinylated ticagrelor binding to TICA0053 his-Fab. The procedure: as §1, §2, §3, §4, §5
On the set-up of data set [1]: species or system mice. The following applies: mouse, in vivo. The procedure: The method was optimized based on a previous published method [Sillen H., et al., J Chromatogr B Analyt Technol Biomed Life Sci. 2011 Aug. 1; 879(23): 2315-22]. Dialysis membranes (Spectrum Laboratories, Inc) which allows molecules with a mass below 6 to 8 kDa to pass through, was soaked in ELGA water for 10 to 15 min and placed between the dialysis plate halves (in house made). Plasma, 130 μL, was added to one side of the dialysis plate and 130 μL phosphate buffer, pH 7.0, was added to the opposite side. The wells on both sides were sealed with lids and aluminum plates were put on top on each side of the plate to avoid leakage. The plate was then placed vertical on an orbital shaker at 100 rpm/min at 37° C. for 24 h. The dialysis was terminated by transferring of 50 μL retentate from plasma side and 75 μL dialysate from buffer side to a protein LoBind PCR clean 96 deep-well plate containing 150 μL respective 75 μL internal standard (D7-ZD6140) in acetonitrile. The plate was mixed for 1 min and then centrifuged for 20 min, 1500× g at 4° C. After centrifugation 50 μL supernatant from the precipitated retentate was transferred and diluted with 50 μL ELGA H2O before LC-MS/MS (Acquity Ultra Performance LC coupled to a Xevo TQ-S mass spectrometer, Waters) analysis. No quality control samples were used in the analysis. […]

The conditions of data set [2]: human, in vivo; cited from earlier work.
The target of data set [3] is TICA0159 IgG binding to biotinylated ticagrelor. In words: Second generation HTRF epitope competition assay. As for the experimental part: Purified parent TICA0072 (scFv or Fab) was used as a benchmark in all experiments such that improvements in IC50 measured with optimized variants (scFv or Fab) could be expressed as fold improvements over parent TICA0072. Total Binding Control Wells contained all assay components except that 5 ul assay buffer was added in place of the purified scFv or Fab sample. Negative Binding control wells contained all of the components of the Total Binding control wells except that 5 ul of assay buffer was added in place of the TICA0072 IgG.
In both single point HTS and multipoint IC50 profiling versions of the assay. plates were incubated for 3 hrs at RT before being read on an Envision plate reader using a standard HTRF read protocol in which samples are excited at 337 nm and time resolved fluorescence emission is measured at both 620 nm and 665 nM.
Raw 665 nm and 620 nm counts were used to calculate Delta F (%) and % Specific Binding according to the equations described earlier in Assays 1 and 4, respectively. For multipoint secondary profiling experiments IC50 values were determined using Graphpad Prism software using sigmoidal dose response (variable slope) curve fitting (4 parameter logistic equation).
This assay was used only in multipoint IC50 profiling format (as opposed to HTS format) and was performed essentially identically to the method given in Assay 5 (above) for multipoint IC50 profiling of purified Fab variants in the parent TICA0072 IgG based epitope competition assay. The only difference being that TICA0159 IgG was used in place of TICA0072 IgG at the appropriate point in the assay set up but at the same 16nM final assay concentration. In all other respects this assay was performed exactly as described above in the multipoint secondary profiling version for purified Fab.

Read-outs that look alike come from different tables or passages of the source.

On to `CCCSc1nc(N[C@@H]2C[C@H]2c2ccc(F)c(F)c2)c2nnn([C@@H]3C[C@H](OCCO)[C@@H](O)[C@H]3O)c2n1` [Ticagrelor, (1S,2S,3R,5S)-3-[7-{[(1R,2S)-2-(3,4-difluorophenyl)cyclopropyl]amino}-5-(propylthio)-3H-[1,2,3]triazolo[4,5-d]pyrimidin-3-yl]-5-(2-hydroxyethoxy)cyclopentane-1,2-diol], for which the half-maximal inhibitory concentration (IC50) (commonly the concentration needed to halve the response being measured) was 0.257 µM on TICA0049 Fab (first series (Table 2), not DMSO normalised, read-out: IC50 (uM) for inhibition of biotinylated ticagrelor binding to TICA0049 his-Fab); 0.368 µM on TICA0049 Fab (second series (Table 3), DMSO normalised, read-out: IC50 in competition binding selectivity studies, TICA0049); 0.113 µM on TICA0072 Fab (first series (Table 2), not DMSO normalised, read-out: IC50 (uM) for inhibition of biotinylated ticagrelor binding to TICA0072 his-Fab); 0.356 µM on TICA0072 Fab (second series (Table 3), DMSO normalised, read-out: IC50 in competition binding selectivity studies, TICA0072); 0.109 µM at TICA0053 Fab. The “mean free plasma concentration of ticagrelor” value in data set [1] worked out at 4.7 nM. For the same molecule, the circulating half-life in data set [2] was 8 h.

B1: TICA0212: combination of TICA0162 and TICA0152; VH SEQ ID NO:72, VL SEQ ID NO:77 (antibody, listed as Homo sapiens, V domains shown)
VH: QVQLQESGAEVKKPGSSVRVSCKASGGTFDSYSIHWVRQAPGQGLEWMGGIIPAFGTLSSAQDFQARVTISADKSTSTAYMELSGLRSEDTAVYYCARGSFDYYFWSASHPPNDALAIWGQGTLVTVSS
VL: QSVVTQPPSVSAAPGQKVTISCSGSNSDIGNNYVSWYQQLPGTAPKLLIYDNNKRPSGIPDRFSGSKSGTSATLAITGLQAGDEADYYCGTWLYDRAVGLFGGGTKVTVL
On to B1, for which the 50% inhibitory concentration (IC50) in data set [3] (Fab, 16 nM TICA0159 IgG, 1 nM biotinylated ticagrelor) turned out to be 12 nM. In data set [3] (IC50 relative to parent TICA0072 Fab), the “Fold Improved” value worked out at 142.8. Moreover, in data set [3] (second generation epitope competition assay), the “improvement in IC50 relative to the parent TICA0072 Fab” value is “approximately 2 log”.

The record behind these values is US12391768B2, “Antibodies to ticagrelor and methods of use” (MEDIMMUNE LIMITED, priority 2014, dated 2025).
